Active and inactive are the calls of the source.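 How the source made its calls: active means MAPK1 protein level shifted by at least 30% from DMSO-treated cells, either down or up; inactive means shift under 30% either way.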
Molecular target: Mitogen-activated protein kinase 1 (Homo sapiens) (UniProt P28482)
Assay: MAPK1 protein abundance inhibitors – SW620 cells, chemiluminescent western blot, powder samples, counter-screen for KLF5 inhibitor project, late-stage follow-up (AID 588666)
Details: ERK1/2 western blot, 24 h, at 10 µM; for inhibition: stronger effect = higher value; for fold change: measured here: ERK1/2 protein fold change vs DMSO, stronger effect = lower value

Sequence of Mitogen-activated protein kinase 1 (Homo sapiens) (P28482 whole entry, looked up): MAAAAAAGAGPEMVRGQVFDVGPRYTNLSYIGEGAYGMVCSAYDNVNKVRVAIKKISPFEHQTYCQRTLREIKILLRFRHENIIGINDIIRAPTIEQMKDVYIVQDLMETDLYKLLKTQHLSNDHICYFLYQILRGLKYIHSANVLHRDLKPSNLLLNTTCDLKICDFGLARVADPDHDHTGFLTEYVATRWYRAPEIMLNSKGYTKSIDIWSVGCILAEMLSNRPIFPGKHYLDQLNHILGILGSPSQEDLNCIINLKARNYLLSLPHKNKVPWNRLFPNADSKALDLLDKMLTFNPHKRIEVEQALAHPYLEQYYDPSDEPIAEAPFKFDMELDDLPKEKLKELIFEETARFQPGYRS

inhibition | Compound | fold change
-9.9% (inactive) | CN(C(=O)CNC(=O)/C=C/c1cccc(Cl)c1)C1CCS(=O)(=O)CC1 | 1.1
14.8% (inactive) | CN(C(=O)COC(=O)/C=C/c1cccc([N+](=O)[O-])c1)C1CCS(=O)(=O)C1 (stereo unspecified) | -1.17
26.9% (inactive) | CN(C(=O)CNC(=O)/C=C/c1cccc(Cl)c1)C1CCS(=O)(=O)C1 (stereo unspecified) | -1.37
